Results: patent publication US6589967B1, “Oxime O-ether compounds and fungicides for agricultural and horticultural use” (Nippon Soda Co. Ltd., priority 1999, dated 2003)

Tested on: snap bean gray mold fungus (Botrytis cinerea)
Assay: Test on Kidney Bean Gray Mold Control
Format: in vivo
Settings: 50 ppm active ingredient, cut Kidney bean flowers (Nagauzura) dipped, spores sprayed, placed on detached leaves, 7 days at 20° C., high humidity
Experimental: Now, explanation is made on how the compounds according to the present invention are effective as an active ingredient of a fungicide for controlling various plant diseases with reference to Test examples described later. In the Test Examples, the control efficacy is determined by visually checking the infested state of the test plants at the time of observation, namely, checking the damage to the host plants and the developing state of the disease-causing fungus appeared on leaves, stems, etc. of the test plants, compared to the control test plants which are healthy. Flowers of Kidney bean (variety; Nagauzura) grown in a flat vessel for culturing seedlings are cut, and the cut flowers were dipped into a solution prepared by diluting the emulsifiable concentrate prepared for the compound of the present invention at a concentration of 50 ppm based on the active ingredient. After the dipping, the flowers were dried at a room temperature. Then, spore solution of snap bean gray mold fungus (Botrytis cinerea) was sprayed to the flowers. The flowers sprayed with spores of the gray mold fungus were placed on the leaves which were detached from healthy Kidney bean plants, and those leaves were placed in a room being maintained at 20° C. and high humidity with repeated lighting of 12 hours intervals, and the Kidney bean leaves were incubated in the room for 7 days. Then, the infestation degree by the fungus on the leaves was checked in comparison to the control healthy leaves to determine the control efficacy. […] Note that the compound numbers in the following correspond to the same compound numbers in the Table 1. Compound Nos. 1, 3, 6, 7, 11, 12, 13, 14, 15, 18, 20, 21, 22, 23, 25, 26, 27, 29, 36, 48, 49, 192, 194, 195, 196, 198, 201, 203, 204, 207, 208, 209, 210, 213, 216, 219, 220, 222, 223, 224, 225, 227, 228, 229, 231, 233, 234, 235, 236, 237, 239, 240, 242

| SMILES | control performance (control efficacy) |
| --- | --- |
| C=Cc1cccc(OC)c1CON=Cc1cc(C)cc(C)n1 [compound 210] | excellent control performance |
| COc1cccc(N)c1CON=Cc1cc(C)cc(C)n1 [Compound No. 222, 4,6-Dimethyl-2-pyridinecarboxyaldehyde O-[(2-Methoxy-6-aminophenyl)methyl] Oxime] | excellent control performance |
| COc1cccc(OC)c1CON=Cc1ccccn1 [compound 231] | excellent control performance |
| COc1cccc(OC(C)=O)c1CON=Cc1cc(C)cc(C)n1 [compound 227] | excellent control performance |
| CCC(=NOCc1c(OC)cccc1OC)c1cc(C)cc(C)n1 [Compound No. 20] | excellent control performance |
| CNc1cccc(OC)c1CON=Cc1cc(C)cc(C)n1 [Compound No. 223, 4,6-Dimethyl-2-pyridinecarboxyaldehyde O-[(2-Methoxy-6-methylaminophenyl)methyl] Oxime] | excellent control performance |
| COCOc1cccc(OC)c1CON=C(C)c1cc(C)cc(C)n1 [Compound No. 23] | excellent control performance |
| COc1ccc(Cl)c(OC)c1CON=Cc1cc(C)cc(C)n1 [compound 242] | excellent control performance |
| COc1ccc(CON=C(C)c2cc(C)cc(C)n2)c(OC)c1 [Compound No. 13, 1-(4,6-Dimethyl-2-pyridinyl)ethanone O-[(2,4-Dimethoxyphenyl)methyl] Oxime] | excellent control performance |
| COc1cc(C)cc(OC)c1CON=Cc1cc(C)cc(C)n1 [compound 208] | excellent control performance |
| COCOc1ccc(OC)cc1CON=C(C)c1cc(C)cc(C)n1 [compound 12] | excellent control performance |
| COc1cccc(OC)c1CON=Cc1cccc(C)n1 [compound 228] | excellent control performance |
| COc1cc(C)cc(OC)c1CON=C(C)c1cc(C)cc(C)n1 [compound 209] | excellent control performance |
| COc1cccc(C)c1CON=Cc1cc(C)cc(C)n1 [compound 203] | excellent control performance |
| COc1cccc(F)c1CON=Cc1cc(C)cc(C)n1 [compound 204] | excellent control performance |
| COc1cccc(C)c1CON=C(C)c1cc(C)cc(C)n1 [Compound No. 7, 1-(4,6-Dimethyl-2-pyridinyl)ethanone O-[(2-Methoxy-6-methylphenyl)methyl] Oxime] | excellent control performance |
| COc1ccc(F)c(F)c1CON=C(C)c1cc(C)cc(C)n1 [compound 198] | excellent control performance |
| COCOc1c(C)cccc1CON=C(C)c1cc(C)cc(C)n1 [compound 194] | excellent control performance |
| COc1cccc(OC)c1CON=Cc1cc(C)cc(C)n1.Cl [compound 236] | excellent control performance |
| COc1ccc(C)c(OC)c1CON=Cc1cc(C)cc(C)n1 [compound 240] | excellent control performance |
| COc1cccc(F)c1CON=C(C)c1cc(C)cc(C)n1 [Compound No. 1, 1-(4,6-Dimethyl-2-pyridinyl)ethanone O-[(2-Fluoro-6-methoxyphenyl)methyl]oxime] | excellent control performance |
| COc1cccc(CON=C(C)c2cc(C)cc(C)n2)c1OC(C)=O [compound 207] | excellent control performance |
| COc1cccc(Br)c1CON=Cc1cc(C)cc(C)n1 [Compound No. 234, 4,6-Dimethyl-2-pyridinecarboxyaldehyde O-[(2-Methoxy-6-bromophenyl)methyl]oxime] | excellent control performance |
| COc1cc(Cl)cc(OC)c1CON=Cc1cc(C)cc(C)n1 [compound 213] | excellent control performance |
| COc1cccc(OC)c1C(C)ON=C(C)c1cc(C)cc(C)n1 (stereo not shown) [compound 11] | excellent control performance |
| COc1cccc(OC)c1CON=Cc1cc(Cl)cc(C)n1 [Compound No. 219, 4-Chloro-6-methyl-2-pyridinecarboxyaldehyde O-[(2,6-Dimethoxyphenyl)methyl] Oxime] | excellent control performance |

| SMILES | control performance (control efficacy) |
| --- | --- |
| CCc1cccc(OC)c1CON=C(C)c1cc(C)cc(C)n1 [compound 27] | excellent control performance |
| COc1ccc(F)c(OC)c1CON=Cc1cc(C)cc(C)n1 [compound 48] | excellent control performance |
| COc1cc(OC)c(CON=Cc2cc(C)cc(C)n2)c(OC)c1 [Compound No. 233, 4,6-Dimethyl-2-pyridinecarboxyaldehyde O-[(2,4,6-Trimethoxyphenyl)methyl]oxime] | excellent control performance |
| COc1ccc(CON=C(C)c2cc(C)cc(C)n2)c(O)c1 [compound 14] | excellent control performance |
| COc1cccc(OC)c1CON=Cc1cc(Br)cc(C)n1 [compound 229] | excellent control performance |
| COc1ccc(Cl)c(OC)c1CON=C(C)c1cc(C)cc(C)n1 [compound 3] | excellent control performance |
| COc1cccc(C)c1CON=C(C)c1cc(C)ccn1 [compound 36] | excellent control performance |
| COc1cccc(Cl)c1CON=C(C)c1cc(C)cc(C)n1 [compound 29] | excellent control performance |
| COc1c(F)ccc(F)c1CON=C(C)c1cc(C)cc(C)n1 [compound 201] | excellent control performance |
| COc1cccc(OC)c1CON=C(C)c1cc(Cl)cc(C)n1 [Compound No. 18, 1-(4-Chloro-6-methyl-2-pyridinyl)ethanone O-[(2,6-Dimethoxyphenyl)methyl] Oxime] | excellent control performance |
| COc1cccc(F)c1CON=Cc1cc(Cl)cc(C)n1 [compound 220] | excellent control performance |
| COc1ccc(O)c(CON=C(C)c2cc(C)cc(C)n2)c1 [Compound No. 21] | excellent control performance |
| C#Cc1cccc(OC)c1CON=Cc1cc(C)cc(C)n1 [Compound No. 235, 4,6-Dimethyl-2-pyridinecarboxyaldehyde O-[(2-Methoxy-6-ethynylphenyl)methyl]oxime] | excellent control performance |
| COc1cc(F)c(CON=Cc2cc(C)cc(C)n2)c(OC)c1 [compound 224] | excellent control performance |
| COc1cc(C)ccc1CON=C(C)c1cc(C)cc(C)n1 [compound 15] | excellent control performance |
| COc1cccc(N(C)C)c1CON=Cc1cc(C)cc(C)n1 [Compound No. 225, 4,6-dimethyl-2-pyridinecarboxyaldehyde O-[(2-methoxy-6-dimethylaminophenyl)methyl] oxime] | excellent control performance |
| COc1cccc(OC)c1C(C)ON=Cc1cc(C)cc(C)n1 (racemic) [compound 239] | excellent control performance |
| COc1cccc(OC)c1CON=C(C)c1cc(C)cc(C)n1 [compound 195] | excellent control performance |
| COCOc1cc(OC)ccc1CON=C(C)c1cc(C)cc(C)n1 [compound 6] | excellent control performance |
| COc1ccc(C)cc1CON=C(C)c1cc(C)cc(C)n1 [compound 26] | excellent control performance |
| COCc1cccc(OC)c1CON=Cc1cc(C)cc(C)n1 [compound 237] | excellent control performance |
| COc1cc(F)cc(OC)c1CON=Cc1cc(C)cc(C)n1 [compound 216] | excellent control performance |
| CC(=NOCc1ccc(C)cc1O)c1cc(C)cc(C)n1 [compound 49] | excellent control performance |
| COc1ccc(OC)c(CON=C(C)c2cc(C)cc(C)n2)c1 [Compound No. 22] | excellent control performance |
| COCOc1cc(C)ccc1CON=C(C)c1cc(C)cc(C)n1 [compound 192] | excellent control performance |
| COc1cccc(CON=C(C)c2cc(C)cc(C)n2)c1O [Compound No. 25, 1-(4,6-Dimethyl-2-pyridinyl)ethanone O-[(2-hydroxy-3-methoxyphenyl)methyl] Oxime] | excellent control performance |
